From patent US9394544B2, “Ameliorating oxidative stress in neurodegenerative disease via Nox1 targeting” (University of Central Florida Research Foundation, Inc., priority 2013, dated 2016)

System: Rac1
Test: Rac1 activation assay (active GTPase pull-down) in N27 cells
Type: cell-based, rat
Settings: 6 h post administration
Description: The NADPH oxidase is a multi-subunit enzyme that consists of the catalytic subunits (Nox isoforms) together with the regulatory subunits including p22phox, p47phox, p40phox, p67phox, Nox organizer 1 (Noxo1), Nox activator 1 (Noxa1), and small GTPase Rac1. In order to test whether dopaminergic (DA) cells are equipped with the NOX components, N27, a well-established rat DA cell line was examined (Prasad et al. 1994). The mRNAs encoding each Nox isoform and regulatory subunits were detected using RT-PCR. Since transcriptional induction of Nox1 and Nox4 has already been reported in several tissues under a variety of stimuli, transcripts were determined in both nontreated and 6-hydroxydopamine (6-OHDA), a DA neurodegenerative compound, treated DA cells. ROS generation as induced by 6-OHDA (100 μM) and subsequent cell death was observed. All Nox isoforms (Nox1, Nox2, Nox4, Duox1 and Duox2) except Nox3 and Nox5 were detected (FIG. 1A). […] Mitochondria, which have long been considered as a major source of ROS, play a key role in Nox1-mediated superoxide generation (Desouki et al. 2005). […] Cytoplasmic regulatory subunits including p47phox, Noxa1, and Noxo1 were constitutively expressed in DA cells as well (FIG. 1A). Noxa1 and Noxo1 are homologues of p67phox and p47phox, respectively. […] GTP-bound active Rac1 was measured in DA cells treated with 6-OHDA for various duration from 1 h to 6 h. […]

NCCc1cc(O)c(O)cc1O [6-OHDA, 6-hydroxydopamine]
GTP-bound active Rac1: Rac1 activation was observed
